Tests used:
Assay type in all cases: cell-based
add-G6 riboswitch = test: cells; details: Homo sapiens, HEK293, read-out: Fold Induction of luciferase activity
Source text: (§1) A truncated human beta-globin intron sequence was synthesized and inserted in the coding sequence of a firefly luciferase gene. A mutant human DHFR exon 2 was synthesized and inserted in the middle of this truncated beta-globin intron sequence using Golden gate cloning strategy. Aptamers including xpt-G/A^1, ydhl-G/A^2, yxj^3, add^4, gdg6-G/A^5 (citations for the aptamers are incorporated herein by reference) were synthesized as oligonucleotides (“oligos”) with 4 nucleotide overhang at the 5′ end that are complementary to two different BsaI sites individually (IDT), annealed and ligated to BsaI-digested mDHFR-Luci-acceptor vector.
(§2) 3.5×10^4 HEK 293 cells were plated in a 96-well flat bottom plate the day before transfection. Plasmid DNA (500 ng) was added to a tube or a 96-well U-bottom plate. […] Then, 50 μL of this diluted transfection reagent was added to the DNA, mixed, and incubated at RT for 20 min. Finally, 7 μL of this solution was added to a well of cells in the 96-well plate.
(§3) 24 hours after media change, plates were removed from the incubator, and equilibrated to RT for several minutes on a lab bench, then aspirated. Glo-lysis buffer (Promega, 100 μL, RT) was added, and the plates maintained at RT for at least 5 minutes. Then, the well contents were mixed by 50 μL trituration, and 20 μL of each sample was mixed with 20 μL of bright-glo reagent (Promega) that had been diluted to 10% in glo-lysis buffer. 96 wells were spaced on an opaque white 384-well plate. Following a 5 min incubation at RT, luminescence was measured using a Tecan machine with 500 mSec read time. […]

xpt-A8 riboswitch = test: cells; details: Homo sapiens, HEK293, read-out: Fold Induction of luciferase activity
Source text: (§4) Riboswitches were constructed as described in PCT/US2016/016234 (in particular Examples 3 to 6), incorporated herein by reference. A truncated human beta-globin intron sequence was synthesized and inserted in the coding sequence of a firefly luciferase gene. A mutant human DHFR exon 2 was synthesized and inserted in the middle of this truncated beta-globin intron sequence using Golden gate cloning strategy. Aptamers including xpt-G/A^1, ydhl-G/A^2, yxj^3, add^4, gdg6-G/A^5 (citations for the aptamers are incorporated herein by reference) were synthesized as oligonucleotides (“oligos”) with 4 nucleotide overhang at the 5′ end that are complementary to two different BsaI sites individually (IDT), annealed and ligated to BsaI-digested mDHFR-Luci-acceptor vector.
(§5) 3.5×10^4 HEK 293 cells were plated in a 96-well flat bottom plate the day before transfection. Plasmid DNA (500 ng) was added to a tube or a 96-well U-bottom plate. Separately, TransIT-293 reagent (Mirus; 1.4 μL) was added to 50 μL Opti-mem I media (Life Technologies), and allowed to sit for 5 minutes at room temperature (RT). Then, 50 μL of this diluted transfection reagent was added to the DNA, mixed, and incubated at RT for 20 min. Finally, 7 μL of this solution was added to a well of cells in the 96-well plate.
(§6) 24 hours after media change, plates were removed from the incubator, and equilibrated to RT for several minutes on a lab bench, then aspirated. Glo-lysis buffer (Promega, 100 μL, RT) was added, and the plates maintained at RT for at least 5 minutes. Then, the well contents were mixed by 50 μL trituration, and 20 μL of each sample was mixed with 20 μL of bright-glo reagent (Promega) that had been diluted to 10% in glo-lysis buffer. 96 wells were spaced on an opaque white 384-well plate. Following a 5 min incubation at RT, luminescence was measured using a Tecan machine with 500 mSec read time. The luciferase activity was expressed as mean relative light unit (RLU)±S.D., and fold induction was calculated as the luciferase activity obtained with guanine treatment divided by luciferase activity obtained without guanine treatment.

add-A6 riboswitch = test: cells; details: Homo sapiens, HEK293, read-out: Fold Induction of luciferase activity
Source text: as §4, §5, §6

gdg6-A8 riboswitch = test: Luciferase reporter assay, gdg6-A8 riboswitch, transfected HEK 293 cells; details: Homo sapiens, HEK293; gdg6-A8 riboswitch; Prestwick library compounds at 100 μM; HEK 293
Source text: as §4, §5, §6

yxj-A6 riboswitch = test: cells; details: Homo sapiens, HEK293, read-out: Fold Induction of luciferase activity
Source text: as §1, §5, §3

ydhl-A6 riboswitch = test: Luciferase reporter assay, ydhl-A6 riboswitch, transfected HEK 293 cells; details: Homo sapiens, HEK293, read-out: Fold Induction of luciferase activity, ydhl-A6 riboswitch; Prestwick library compounds at 100 μM; HEK 293
Source text: as §1, §2, §6

xpt-G17 riboswitch = test: Luciferase reporter assay, xpt-G17 riboswitch, transfected HEK 293 cells; details: for response of guanine riboswitch xpt-G17 to compound (FIG. 1e): Prestwick library at 100 μM
Source text: as §1, §5, §6

ydhl-G8 riboswitch = test: Luciferase reporter assay, ydhl-G8 riboswitch, transfected HEK 293 cells; details: Homo sapiens, HEK293, read-out: Fold Induction of luciferase activity
Source text: as §1, §2, §6

gdg6-G8 riboswitch = test: Luciferase reporter assay, gdg6-G8 riboswitch, transfected HEK 293 cells; details: Homo sapiens, HEK293; gdg6-G8 riboswitch; Prestwick library compounds at 100 μM; HEK 293
Source text: as §4, §5, §6

[1] = system: riboswitches with guanine aptamers; test: Dose responses of constructs with different aptamer based riboswitches (FIG. 1b); details: mammalian cells
Source text: as §1
3.5×10^4 HEK 293 cells were plated in a 96-well flat bottom plate the day before transfection. Plasmid DNA (500 ng) was added to a tube or a 96-well U-bottom plate. […] Then, 50 μL of this diluted transfection reagent was added to the DNA, mixed, and incubated at RT for 20 min. […]
24 hours after media change, plates were removed from the incubator, and equilibrated to RT for several minutes on a lab bench, then aspirated. […] Following a 5 min incubation at RT, luminescence was measured using a Tecan machine with 500 mSec read time. The luciferase activity was expressed as mean relative light unit (RLU)±S.D., and fold induction was calculated as the luciferase activity obtained with guanine treatment divided by luciferase activity obtained without guanine treatment.

Row | Compound | fold induction at 100 µM (add-G6 riboswitch) | fold induction at 100 µM (xpt-A8 riboswitch) | fold induction at 100 µM (add-A6 riboswitch) | fold induction at 100 µM (gdg6-A8 riboswitch) | fold induction at 100 µM (yxj-A6 riboswitch) | fold induction at 100 µM (ydhl-A6 riboswitch) | fold induction at 100 µM (xpt-G17 riboswitch; Homo sapiens, HEK293, xpt-G17 riboswitch, Prestwick library compounds at 100 μM, HEK 293, preliminary screen) | response of guanine riboswitch xpt-G17 to compound (FIG. 1e) (xpt-G17 riboswitch; preliminary screen) | fold induction at 100 µM (ydhl-G8 riboswitch) | fold induction at 100 µM (gdg6-G8 riboswitch) | induction fold of luciferase reporter in response to guanine (xpt-G17 riboswitch; xpt-G17, high concentration of guanine) [fold] | response of riboswitches with guanine aptamers (reporter gene expression, FIG. 1b) [1]
1 | Nc1nc2nn[nH]c2c(=O)[nH]1 [8-Azaguanine] | 47.9 | 95.1 | 22.1 | 306 | 55.6 | 3.7 | 131 | responded | 35.6 | 42.3 | – | –
2 | Nc1nc2nc[nH]c2c(=O)[nH]1 [guanine] | – | – | – | – | – | – | – | responded | – | – | 2000 | responds
3 | Nc1nc2c(ncn2[C@@H]2O[C@H](CO)[C@@H](O)[C@H]2O)c(=O)[nH]1 [guanosine] | – | – | – | – | – | – | – | – | – | – | – | responds

From patent US11371077B2, “High throughput cell-based screening for aptamers” (MeiraGTx UK II Limited, priority 2016, dated 2022)
